Read-outs that look alike come from different tables or passages of the source.
Legend:
Myzus persicae = Myzus persicae - Test (MYZUPE spray application); assay type: in vivo
Text: Myzus persicae—Test; (MYZUPE Spray Application)
Chinese cabbage (Brassica pekinesis) leaf—disks infected with all instars of the green peach aphid (Myzus persicae), are sprayed with a preparation of the active ingredient at the desired concentration.
100% means that all aphids have been killed; 0% means that none of the aphids have been killed.

Phaedon cochleariae = Phaedon cochleariae Larvae - Test (PHAECO spray application); assay type: in vivo
Text: Phaedon cochleariae—Test; (PHAECO Spray Application)
Solvent: 78 parts by weight of acetone • 1.5 parts by weight of N,N-dimethylformamide Emulsifier: 0.5 parts by weight of alkylarylpolyglycolether
Once dry, the leaf discs are infested with mustard beetle larvae (Phaedon cochleariae).

Tetranychus urticae = Tetranychus urticae - Test; OP-resistant (TETRUR spray application); assay type: in vivo
Text: Tetranychus urticae—Test; OP-Resistant (TETRUR Spray Application)
French beans (Phaseolus vulgaris) which are heavily infested with all stages of the two spotted spidermite (Tetranychus urticae), are sprayed with a preparation of the active ingredient at the desired concentration.

Spodoptera frugiperda = assay: whole plant or invertebrate
Method: Spodoptera frugiperda—Test (SPODFR Spray Application)
Solvent: 78.0 parts by weight acetone • 1.5 parts by weight N,N-dimethylformamide Emulsifier: 0.5 parts by weight alkylarylpolyglycolether
Maize (Zea mais) leaf sections are sprayed with a preparation of the active ingredient of the desired concentration. Once dry, the leaf sections are infested with larvae of the fall armyworm (Spodoptera frugiperda).
After the specified period of time, the mortality in % is determined. 100% means that all caterpillars have been killed and 0% means that none of the caterpillars have been killed.

[1] = Myzus persicae, 144 h, read-out: Mortality in % after 6 days obs.
[2] = Phaedon cochleariae, 144 h, read-out: Mortality in % after 6 days obs.
[3] = Tetranychus urticae, 48 h, read-out: Mortality in % after 2 days obs.
[4] = Spodoptera frugiperda, 144 h, read-out: Mortality in % after 6 days obs.
[5] = Myzus persicae, 24 h, read-out: Mortality in % after 1 day obs.
[6] = Phaedon cochleariae, 48 h, read-out: Mortality in % after 2 days obs.
[7] = Tetranychus urticae, 144 h, read-out: Mortality in % after 6 days obs.
[8] = Spodoptera frugiperda, 48 h, read-out: Mortality in % after 2 days obs.

Cc1c(F)c(F)c(COC(=O)[C@@H]2[C@H](/C=C(\Cl)C(F)(F)F)C2(C)C)c(F)c1F (racemic) [B-3A.43, Tefluthrin] was tested, and the mortality at 4 g/ha (Myzus persicae; [1]) was 0%, the mortality at 20 g/ha (Phaedon cochleariae; [2]) was 0% and the mortality at 20 g/ha (Tetranychus urticae; [3]) was 0%. The mortality at 0.8 g/ha (Spodoptera frugiperda; [4]) was 0% and the mortality at 4 g/ha (Spodoptera frugiperda; [4]) was 0%.

CC(C)c1ccccc1CN(C(=O)c1c(C(F)F)nn(C)c1F)C1CC1 [A-1, N-cyclopropyl-3-(difluoromethyl)-5-fluoro-N-(2-isopropylbenzyl)-1-methyl-1H-pyrazole-4-carboxamide] was tested, and the mortality at 100 g/ha (Myzus persicae; [5]) was 0%, the mortality at 100 g/ha (Myzus persicae; [1]) was 0% and the mortality at 100 g/ha (Phaedon cochleariae; [6]) was 0%. It also gave a mortality at 100 g/ha (Phaedon cochleariae; [2]) of 0%, a mortality at 100 g/ha (Tetranychus urticae; [3]) of 0% and a mortality at 100 g/ha (Tetranychus urticae; [7]) of 0%. For the same compound, the mortality at 100 g/ha (Spodoptera frugiperda; [8]) was 0% and the mortality at 100 g/ha (Spodoptera frugiperda; [4]) was 0%.

Compound CC(C)c1ccc(Cl)cc1CN(C(=O)c1c(C(F)F)nn(C)c1F)C1CC1 [A-5, N-(5-chloro-2-isopropylbenzyl)-N-cyclopropyl-3-(difluoromethyl)-5-fluoro-1-methyl-1H-pyrazole-4-carboxamide] has a mortality at 100 g/ha (Myzus persicae; Myzus persicae, 24 h, 100 g/ha, read-out: Mortality in % after 1 day obs.) of 0%, a mortality at 200 g/ha (Myzus persicae; Myzus persicae, 24 h, 200 g/ha, read-out: Mortality in % after 1 day obs.) of 0% and a mortality at 100 g/ha (Myzus persicae; Myzus persicae, 144 h, 100 g/ha, read-out: Mortality in % after 6 days obs.) of 0%. The mortality at 200 g/ha (Myzus persicae; Myzus persicae, 144 h, 200 g/ha, read-out: Mortality in % after 6 days obs.) was 0%, the mortality at 100 g/ha (Phaedon cochleariae; Phaedon cochleariae, 48 h, 100 g/ha, read-out: Mortality in % after 2 days obs.) was 0% and the mortality at 150 g/ha (Phaedon cochleariae; Phaedon cochleariae, 48 h, 150 g/ha, read-out: Mortality in % after 2 days obs.) was 0%. For the same compound, the mortality at 100 g/ha (Phaedon cochleariae; Phaedon cochleariae, 144 h, 100 g/ha, read-out: Mortality in % after 6 days obs.) was 0%, the mortality at 200 g/ha (Phaedon cochleariae; Phaedon cochleariae, 144 h, 200 g/ha, read-out: Mortality in % after 6 days obs.) was 0% and the mortality at 200 g/ha (Tetranychus urticae; Tetranychus urticae, 144 h, 200 g/ha, single active ingredient, 6 days, read-out: Mortality in % after 6 days obs.) was 0%. For the same compound, the mortality at 100 g/ha (Spodoptera frugiperda; [8]) was 0%, the mortality at 200 g/ha (Spodoptera frugiperda; [8]) was 0% and the mortality at 100 g/ha (Spodoptera frugiperda; [4]) was 0%. The mortality at 200 g/ha (Spodoptera frugiperda; [4]) was 0%.

Compound CC(C)c1ccc(F)cc1CN(C(=O)c1c(C(F)F)nn(C)c1F)C1CC1 [A-7, N-cyclopropyl-3-(difluoromethyl)-5-fluoro-N-(5-fluoro-2-isopropylbenzyl)-1-methyl-1H-pyrazole-4-carboxamide] has a mortality at 100 g/ha (Myzus persicae; [5]) of 0%, a mortality at 200 g/ha (Myzus persicae; [5]) of 0% and a mortality at 100 g/ha (Myzus persicae; [1]) of 0%. It also gave a mortality at 200 g/ha (Myzus persicae; [1]) of 0%, a mortality at 100 g/ha (Phaedon cochleariae; [6]) of 0% and a mortality at 150 g/ha (Phaedon cochleariae; [6]) of 0%. For the same compound, the mortality at 100 g/ha (Phaedon cochleariae; [2]) was 0%, the mortality at 200 g/ha (Phaedon cochleariae; [2]) was 0% and the mortality at 100 g/ha (Tetranychus urticae; [3]) was 0%. It also gave a mortality at 150 g/ha (Tetranychus urticae; [3]) of 0%, a mortality at 200 g/ha (Tetranychus urticae; [3]) of 0% and a mortality at 100 g/ha (Spodoptera frugiperda; [8]) of 0%. For the same compound, the mortality at 150 g/ha (Spodoptera frugiperda; [8]) was 0% and the mortality at 100 g/ha (Spodoptera frugiperda; [4]) was 0%.

For Cc1ccc(C(C)C)c(CN(C(=O)c2c(C(F)F)nn(C)c2F)C2CC2)c1 [A-12, N-cyclopropyl-3-(difluoromethyl)-5-fluoro-N-(2-isopropyl-5-methylbenzyl)-1-methyl-1H-pyrazole-4-carboxamide], the mortality at 100 g/ha (Myzus persicae; [5]) was 0%, the mortality at 200 g/ha (Myzus persicae; [5]) was 0% and the mortality at 100 g/ha (Myzus persicae; [1]) was 0%. The mortality at 200 g/ha (Myzus persicae; [1]) was 0%, the mortality at 100 g/ha (Phaedon cochleariae; [6]) was 0% and the mortality at 100 g/ha (Phaedon cochleariae; [2]) was 0%. For the same compound, the mortality at 200 g/ha (Phaedon cochleariae; [2]) was 0%, the mortality at 100 g/ha (Tetranychus urticae; [3]) was 0% and the mortality at 150 g/ha (Tetranychus urticae; [3]) was 0%. For the same compound, the mortality at 100 g/ha (Tetranychus urticae; [7]) was 0%, the mortality at 100 g/ha (Spodoptera frugiperda; [8]) was 0% and the mortality at 200 g/ha (Spodoptera frugiperda; [8]) was 0%. It also gave a mortality at 100 g/ha (Spodoptera frugiperda; [4]) of 0%.

Cn1nc(C(F)F)c(C(=O)N(Cc2cc(Cl)ccc2C(F)(F)F)C2CC2)c1F [A-15, N-[5-chloro-2-(trifluoromethyl)benzyl]-N-cyclopropyl-3-(difluoromethyl)-5-fluoro-1-methyl-1H-pyrazole-4-carboxamide] gave a mortality at 500 g/ha (Myzus persicae; [5]) of 0%, a mortality at 500 g/ha (Myzus persicae; [1]) of 0% and a mortality at 500 g/ha (Phaedon cochleariae; [6]) of 0%. For the same compound, the mortality at 500 g/ha (Phaedon cochleariae; [2]) was 0%, the mortality at 500 g/ha (Tetranychus urticae; [3]) was 0% and the mortality at 500 g/ha (Tetranychus urticae; [7]) was 0%. For the same compound, the mortality at 500 g/ha (Spodoptera frugiperda; [4]) was 0%.

Cn1nc(C(F)F)c(C(=O)N(Cc2c(Cl)cccc2C(F)(F)F)C2CC2)c1F [A-17, N-[2-chloro-6-(trifluoromethyl)benzyl]-N-cyclopropyl-3-(difluoromethyl)-5-fluoro-1-methyl-1H-pyrazole-4-carboxamide] showed a mortality at 100 g/ha (Myzus persicae; [5]) of 0%, a mortality at 100 g/ha (Myzus persicae; [1]) of 0% and a mortality at 100 g/ha (Phaedon cochleariae; [6]) of 0%. The mortality at 100 g/ha (Phaedon cochleariae; [2]) was 0%, the mortality at 100 g/ha (Tetranychus urticae; [3]) was 0% and the mortality at 100 g/ha (Tetranychus urticae; [7]) was 0%. For the same compound, the mortality at 100 g/ha (Spodoptera frugiperda; [8]) was 0% and the mortality at 100 g/ha (Spodoptera frugiperda; [4]) was 0%.

Cn1nc(C(F)F)c(C(=O)N(Cc2c(C(F)(F)F)ccc(Cl)c2F)C2CC2)c1F [A-18, N-[3-chloro-2-fluoro-6-(trifluoromethyl)benzyl]-N-cyclopropyl-3-(difluoromethyl)-5-fluoro-1-methyl-1H-pyrazole-4-carboxamide] showed a mortality at 500 g/ha (Myzus persicae; [5]) of 0%, a mortality at 500 g/ha (Myzus persicae; [1]) of 0% and a mortality at 500 g/ha (Phaedon cochleariae; [6]) of 0%. For the same compound, the mortality at 500 g/ha (Phaedon cochleariae; [2]) was 0%, the mortality at 500 g/ha (Tetranychus urticae; [3]) was 0% and the mortality at 500 g/ha (Tetranychus urticae; [7]) was 0%. It also gave a mortality at 500 g/ha (Spodoptera frugiperda; [4]) of 0%.

In the case of CNC(=O)O/N=C/C(C)(C)SC [B-1A.2, Aldicarb], the “Mortality in % after 6 days obs.” value (Myzus persicae; 20 g/ha) is reported as 80%, the “Mortality in % after 1 day obs.” value (Myzus persicae; 100 g/ha) is reported as 0% and the “Mortality in % after 6 days obs.” value (Phaedon cochleariae; 100 g/ha) is reported as 0%. The “Mortality in % after 2 days obs.” value (Spodoptera frugiperda; 100 g/ha) was 0% and the “Mortality in % after 6 days obs.” value (Spodoptera frugiperda; 100 g/ha) was 33%.

With CS/C(C)=N\OC(=O)N(C)SN(C)C(=O)O/N=C(\C)SC [B-1A.21, Thiodicarb] the “Mortality in % after 6 days obs.” value (Myzus persicae; 100 g/ha) was 0%, the “Mortality in % after 6 days obs.” value (Tetranychus urticae; 100 g/ha, single active ingredient, 6 days) was 0% and the “Mortality in % after 6 days obs.” value (Spodoptera frugiperda; 4 g/ha) was 0%. For the same compound, the “Mortality in % after 6 days obs.” value (Spodoptera frugiperda; 20 g/ha) was 33%.

In the case of CC1(C)[C@H](/C=C(\Cl)C(F)(F)F)[C@@H]1C(=O)O[C@@H](C#N)c1cccc(Oc2ccccc2)c1 [B-3A.12, L-Cyhalothrin], the “Mortality in % after 2 days obs.” value (Phaedon cochleariae; 0.8 g/ha) is reported as 67%, the “Mortality in % after 2 days obs.” value (Tetranychus urticae; 0.16 g/ha) is reported as 0% and the “Mortality in % after 2 days obs.” value (Tetranychus urticae; 0.8 g/ha) is reported as 70%. For the same compound, the “Mortality in % after 6 days obs.” value (Tetranychus urticae; 0.8 g/ha, single active ingredient, 6 days) was 70% and the “Mortality in % after 6 days obs.” value (Spodoptera frugiperda; 0.8 g/ha) was 83%.

For CN1COCN(Cc2cnc(Cl)s2)/C1=N\[N+](=O)[O-] [B-4A.7, Thiamethoxam], the mortality at 4 g/ha (Myzus persicae; [5]) was 0%, the mortality at 0.8 g/ha (Myzus persicae; [1]) was 70% and the mortality at 0.8 g/ha (Phaedon cochleariae; [2]) was 0%. For the same compound, the mortality at 20 g/ha (Tetranychus urticae; [3]) was 0% and the mortality at 4 g/ha (Tetranychus urticae; [7]) was 0%.

Source: patent US20140051576A1, “ACTIVE COMPOUND COMBINATIONS COMPRISING A (THIO)CARBOXAMIDE DERIVATIVE AND AN INSECTICIDAL OR ACARICIDAL OR NEMATICIDAL ACTIVE COMPOUND” (priority 2011, published 2014)
